From patent US8747537B2, “Ink containing heterocyclic azo dye, and dye for use in said ink” (Mitsubishi Chemical Corporation, priority 2010, dated 2014)
Blank lines part the entries; values can stand above or below the molecule they belong to.

Legend:
[1] = Solubility test in low-polarity solvents (saturated solution, λmax, solubility, εC); format: physicochemical; conditions: for Solubility: saturated solution
Description: The solubility of each dye in n-decane, tetradecane, Isopar M, Isopar G, and decalin was examined in the following manner. Each dye was added to each solvent until a dissolution residue came to remain, and this mixture was subjected to a 30-minute ultrasonic treatment at 30 degrees. The resultant mixture was allowed to stand at 5° C. for 24 hours and then subjected to centrifugal filtration (centrifugal force, 5,200×g) with a 0.1-μm filter using a microcentrifuge. The saturated solution obtained was diluted to an adequate concentration, and the solubility of each dye was calculated from a relationship with an extinction coefficient determined beforehand. Furthermore, the value of the product of the molar extinction coefficient ε (Lmol^−1cm^−1) and the concentration C (molL^−1) of the saturated solution, εC, was determined.
Sudan Black B (manufactured by Tokyo Kasei Kogyo Co., Ltd.), which is a commercial oil-soluble black dye, was added to n-decane until a dissolution residue came to remain, and this mixture was subjected to a 30-minute ultrasonic treatment at 30 degrees. The resultant mixture was allowed to stand at 5° C. for 24 hours and then subjected to centrifugal filtration (centrifugal force, 5,200×g) with a 0.1-μm filter using a microcentrifuge. The saturated n-decane solution obtained was diluted to an adequate concentration, and the solubility of the dye was calculated from a relationship with an extinction coefficient determined beforehand.

[2] = Light fastness test (retention of dye after 2 hours of high-pressure mercury lamp irradiation); format: physicochemical; conditions: 1 mg in 250 mL, 2 hours irradiation
Description: The light fastness of each dye was examined in the following manner. One milligram of each dye was dissolved in 250 mL of each of n-decane, tetradecane, Isopar M, and Isopar G, and the solution was irradiated with light for 2 hours using photoreaction apparatus UVL-400HA (400-W high-pressure mercury lamp), manufactured by Riko-Kagaku Sangyo Co., Ltd. During the irradiation, the vessel was cooled with a coolant to keep the internal temperature at 10-30° C. The retention of the dye was determined through the following calculation to evaluate the light fastness. Retention of dye=(absorbance at absorption-maximum wavelength after irradiation)/(absorbance at absorption-maximum wavelength before irradiation)

[3] = n-decane, stood at 5° C. for 24 hours, 0.1-μm filter
[4] = n-decane, 400-W high-pressure mercury lamp

SMILES: CCCCCCCCN(CC(CC)CCCC)c1ccc(/N=N/c2snc(C)c2C#N)c(C)c1 (stereo not shown) [Dye 5]
- εC (molar extinction coefficient × concentration of saturated solution) ([1]; n-decane): 1300 cm⁻¹
- λmax (absorption-maximum wavelength) ([1]; n-decane solution): 523 nm
- Solubility [1, 3]: 2.1%

SMILES: C=Cn1c(N=Nc2ccc(N(CCCC)CCCC)cc2NC(C)=O)nc(C#N)c1C#N [Comparative dye 3, reference compound]
- Light fastness: retention of dye [2, 4]: 76%
- εC ([1]; Isopar G): ≦10 cm^−1
- Solubility ([1]; Isopar G): ≦0.01%
- εC ([1]; Isopar M): ≦10 cm^−1
- Solubility ([1]; Isopar M): ≦0.01%
- εC ([1]; decalin): ≦10 cm^−1
- λmax (absorption-maximum wavelength) ([1]; decalin solution): 520 nm
- Solubility ([1]; decalin): ≦0.01%
- εC (molar extinction coefficient × concentration of saturated solution) ([1]; n-decane): ≦10 cm^−1
- Solubility [1, 3]: ≦0.01%
- εC ([1]; tetradecane): ≦10 cm^−1
- Solubility ([1]; tetradecane): ≦0.01%

SMILES: CCCCc1nsc(/N=N/c2ccc(N(CC(C)C)CC(C)C)cc2NC(C)=O)c1C#N [Dye 12]
- εC (molar extinction coefficient × concentration of saturated solution) ([1]; n-decane): 4100 cm⁻¹
- λmax (absorption-maximum wavelength) ([1]; n-decane solution): 543 nm
- Solubility [1, 3]: 5.7%

SMILES: CCOC(=O)c1sc(/N=N/c2ccc(N(CC(C)C)CC(C)C)cc2C)c(C(=O)OCC)c1C [Dye 18]
- εC (molar extinction coefficient × concentration of saturated solution) ([1]; n-decane): 1000 cm⁻¹
- λmax (absorption-maximum wavelength) ([1]; n-decane solution): 498 nm
- Solubility [1, 3]: 1.7%

SMILES: CCCCC(CC)CN(CC)c1ccc(/N=N/c2snc(CC)c2C#N)c(NC(C)=O)c1 (stereo not shown) [Dye 11]
- εC (molar extinction coefficient × concentration of saturated solution) ([1]; n-decane): 4300 cm⁻¹
- λmax (absorption-maximum wavelength) ([1]; n-decane solution): 535 nm
- Solubility [1, 3]: 4.2%

SMILES: CCCCC(CC)CN(CC(CC)CCCC)c1ccc(/N=N/c2sc(C(=O)OCC)c(C)c2C(=O)OCC)c(C)c1 (stereo not shown) [Dye 6]
- εC (molar extinction coefficient × concentration of saturated solution) ([1]; n-decane): 3200 cm⁻¹
- λmax (absorption-maximum wavelength) ([1]; n-decane solution): 504 nm
- Solubility [1, 3]: 8.4%

SMILES: CCCCC(CC)CN(CC(CC)CCCC)c1ccc(/N=N/c2sc(C(=O)OCC)c(C)c2C#N)c(CC)c1 (stereo not shown) [Dye 20]
- εC (molar extinction coefficient × concentration of saturated solution) ([1]; n-decane): 6000 cm⁻¹
- λmax (absorption-maximum wavelength) ([1]; n-decane solution): 546 nm
- Solubility [1, 3]: 9.7%

Other lines, results leading:

- Light fastness: retention of dye ([2]; Isopar G): 98%
- Light fastness: retention of dye ([2]; Isopar M): 95%
- Light fastness: retention of dye [2, 4]: 96%
- Light fastness: retention of dye ([2]; tetradecane): 82%
- εC ([1]; Isopar G): 4900 cm⁻¹
- λmax (absorption-maximum wavelength) ([1]; Isopar G solution): 526 nm
- Solubility ([1]; Isopar G): 7.4%
- εC ([1]; Isopar M): 6000 cm⁻¹
- λmax (absorption-maximum wavelength) ([1]; Isopar M solution): 530 nm
- Solubility ([1]; Isopar M): 8.51%
- εC ([1]; decalin): 5200 cm⁻¹
- λmax (absorption-maximum wavelength) ([1]; decalin solution): 534 nm
- Solubility ([1]; decalin): 6.5%
- εC (molar extinction coefficient × concentration of saturated solution) ([1]; n-decane): 5700 cm⁻¹
- λmax (absorption-maximum wavelength) ([1]; n-decane solution): 527 nm
- Solubility [1, 3]: 6.6%
- εC ([1]; tetradecane): 5200 cm⁻¹
- λmax (absorption-maximum wavelength) ([1]; tetradecane solution): 530 nm
- Solubility ([1]; tetradecane): 6.8%
SMILES: CCCCC(CC)CN(CC(CC)CCCC)c1ccc(/N=N/c2snc(CC)c2C#N)c(C)c1 (stereo not shown) [Dye 4]

- εC (molar extinction coefficient × concentration of saturated solution) ([1]; n-decane): 2300 cm⁻¹
- λmax (absorption-maximum wavelength) ([1]; n-decane solution): 563 nm
- Solubility [1, 3]: 3.7%
SMILES: CCCCC(CC)CN(CC(CC)CCCC)c1cc(C)c(/N=N/c2snc(C)c2C#N)cc1OC (stereo not shown) [Dye 16]

- εC (molar extinction coefficient × concentration of saturated solution) ([1]; n-decane): 2800 cm⁻¹
- λmax (absorption-maximum wavelength) ([1]; n-decane solution): 527 nm
- Solubility [1, 3]: 4.8%
SMILES: CCCCC(CC)CN(CC(CC)CCCC)c1ccc(/N=N/c2snc(C(C)C)c2C#N)c(C)c1 (stereo not shown) [Dye 14]

- εC ([1]; Isopar G): 11500 cm⁻¹
- λmax (absorption-maximum wavelength) ([1]; Isopar G solution): 543 nm
- Solubility ([1]; Isopar G): 13.3%
- εC ([1]; Isopar M): 8900 cm⁻¹
- λmax (absorption-maximum wavelength) ([1]; Isopar M solution): 544 nm
- Solubility ([1]; Isopar M): 9.8%
- εC ([1]; decalin): 8500 cm⁻¹
- λmax (absorption-maximum wavelength) ([1]; decalin solution): 547 nm
- Solubility ([1]; decalin): 9.1%
- εC (molar extinction coefficient × concentration of saturated solution) ([1]; n-decane): 11000 cm⁻¹
- λmax (absorption-maximum wavelength) ([1]; n-decane solution): 543 nm
- Solubility [1, 3]: 13%
- εC ([1]; tetradecane): 7400 cm⁻¹
- λmax (absorption-maximum wavelength) ([1]; tetradecane solution): 544 nm
- Solubility ([1]; tetradecane): 8.5%
SMILES: CCCCC(CC)CN(CC(CC)CCCC)c1ccc(/N=N/c2snc(C)c2C#N)c(NC(=O)CC)c1 (stereo not shown) [Dye 9]

- εC (molar extinction coefficient × concentration of saturated solution) ([1]; n-decane): 8300 cm⁻¹
- λmax (absorption-maximum wavelength) ([1]; n-decane solution): 535 nm
- Solubility [1, 3]: 9.7%
SMILES: CCCCC(CC)CN(CC(CC)CCCC)c1ccc(/N=N/c2snc(C)c2C#N)c(C(C)C)c1 (stereo not shown) [Dye 15]

- εC (molar extinction coefficient × concentration of saturated solution) ([1]; n-decane): 3700 cm⁻¹
- λmax (absorption-maximum wavelength) ([1]; n-decane solution): 527 nm
- Solubility [1, 3]: 5.9%
SMILES: CCCCc1nsc(/N=N/c2ccc(N(CC(CC)CCCC)CC(CC)CCCC)cc2C)c1C#N (stereo not shown) [Dye 13]

- εC ([1]; Isopar G): 3600 cm⁻¹
- λmax (absorption-maximum wavelength) ([1]; Isopar G solution): 533 nm
- Solubility ([1]; Isopar G): 5.17%
- εC ([1]; Isopar M): 2500 cm⁻¹
- λmax (absorption-maximum wavelength) ([1]; Isopar M solution): 534 nm
- Solubility ([1]; Isopar M): 3.4%
- εC (molar extinction coefficient × concentration of saturated solution) ([1]; n-decane): 6500 cm⁻¹
- λmax (absorption-maximum wavelength) ([1]; n-decane solution): 533 nm
- Solubility [1, 3]: 10%
- εC ([1]; tetradecane): 2800 cm⁻¹
- λmax (absorption-maximum wavelength) ([1]; tetradecane solution): 534 nm
- Solubility ([1]; tetradecane): 3.9%
SMILES: CCCCC(CC)CN(CC(CC)CCCC)c1ccc(/N=N/c2snc(C)c2C#N)c(CC)c1 (stereo not shown) [Dye 8]

- εC (molar extinction coefficient × concentration of saturated solution) ([1]; n-decane): 12000 cm⁻¹
- λmax (absorption-maximum wavelength) ([1]; n-decane solution): 523 nm
- Solubility [1, 3]: 9.2%
SMILES: CCCCC(CC)CN(CC(CC)CCCC)c1ccc(/N=N/c2snc(C)c2C#N)cc1 (stereo not shown) [Dye 17]
